{
  "source": "patent US11840531B2",
  "about": "“CDK8/19 inhibitors” (JOINT STOCK COMPANY “BIOCAD”, priority 2018, dated 2023)",
  "data": [
    {"target": "CDK8/Cyclin C (Homo sapiens (Human), UniProt P49336)", "sequence (P49336 whole entry)": "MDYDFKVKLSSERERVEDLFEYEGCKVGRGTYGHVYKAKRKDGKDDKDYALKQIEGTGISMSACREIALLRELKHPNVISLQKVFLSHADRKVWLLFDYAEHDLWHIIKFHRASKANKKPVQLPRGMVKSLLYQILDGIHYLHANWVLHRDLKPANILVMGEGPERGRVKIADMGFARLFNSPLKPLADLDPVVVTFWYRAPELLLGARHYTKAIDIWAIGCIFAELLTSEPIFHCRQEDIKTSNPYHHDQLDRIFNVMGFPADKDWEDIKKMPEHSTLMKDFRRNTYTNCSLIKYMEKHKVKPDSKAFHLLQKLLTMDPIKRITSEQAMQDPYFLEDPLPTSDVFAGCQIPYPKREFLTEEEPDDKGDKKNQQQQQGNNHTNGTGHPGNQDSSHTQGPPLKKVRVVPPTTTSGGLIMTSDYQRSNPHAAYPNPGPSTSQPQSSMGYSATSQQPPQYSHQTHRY", "sequence (P24863 whole entry partner)": "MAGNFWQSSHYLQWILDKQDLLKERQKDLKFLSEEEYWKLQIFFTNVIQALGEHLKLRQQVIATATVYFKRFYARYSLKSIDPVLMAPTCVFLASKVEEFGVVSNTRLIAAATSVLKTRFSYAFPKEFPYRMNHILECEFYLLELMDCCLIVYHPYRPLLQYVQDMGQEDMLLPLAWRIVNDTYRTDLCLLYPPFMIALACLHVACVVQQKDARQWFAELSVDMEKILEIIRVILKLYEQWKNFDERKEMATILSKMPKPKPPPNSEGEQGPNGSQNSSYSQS", "experiment": "LanthaScreen binding to recombinant CDK8/Cyclin C", "conditions": "TR-FRET, Tracer 236 10 nM, CDK8/Cyclin C 5 nM", "protocol": "Capability of compounds of the present invention to bind to CDK8 protein was detected using LanthaScreen (ThermoFisher) assay. We detected FRET signal proportional to the amount of CDK8-bound fluorescently-labeled ligand (Tracer 236) that competes with inhibitor for ATP binding site. We carried out the measurements in a 15 μl reaction volume using a 384-well plate (Corning, #CLS4513). Enzyme CDK8/Cyclin C (ThermoFisher, #PR7261B) was mixed with antibodies Anti-His-tag-Biotin (ThermoFisher, #PV6090), Streptavidin-Eu (ThermoFisher, #PV6025), the resulting mixture was added to plate wells (5 MKπ/well). Final concentrations of substances were as follows: CDK8/Cyclin C—5 nM, Streptavidin-Eu—3 nM, Anti-His-tag-Biotin—3 nM. Staurosporine (S4400, Sigma) was used as a reference inhibitor, and 0.1% solution of dimethyl sulphoxide (DMSO) in reaction buffer was used as a blank, the reaction buffer comprised 250 mM HEPES (pH 7.5), 50 mM MgCl2, 5 mM EGTA, and 0.05% Brij-35.\nThe inhibitors and controls in question were added to corresponding wells (5 μl/well). The plate was incubated at room temperature for 20 minutes. After incubating, 5 μl/well of tracer solution Alexa Fluor-647 (Kinase Tracer 236, ThermoFisher, #PV5592)) was added to the wells. Final concentration of tracer was 10 nM. Reaction buffer, instead of tracer solution, was used as a negative control. The plate was incubated for 40 minutes at 25° C., TR-FRET signal was then measured according to the manufacturer's guidelines on SPARK20 plate reader (Tecan, Switzerland), and the value was converted to the amount of kinase-bound tracer. IC50 values were calculated using SparkControl Magellan 1.2 software (Tecan, Switzerland) approximating experimental points by four-parameter logistic model with the optimization by Levenberg-Marquardt (Table 5).", "units": {"IC50": "nM"}, "values": [
      {"smiles": "COCCn1cc(-c2ccc(-c3cnc(N)c4ncc(C(=O)NCC5CC5)cc34)cc2)cn1", "note": "[Compound 3.45, 8-amino-N-(cyclopropylmethyl)-5-(4-(1-(2-methoxyethyl)-1H-pyrazole-4-yl)phenyl)-1,7-naphthyridine-3-carboxamide]", "IC50": 1.63},
      {"smiles": "COCCn1cc(-c2ccc(-c3cnc(N)c4ncc(C(=O)NC5CC5)cc34)cc2)cn1", "note": "[Compound 3.48]", "IC50": 1.1},
      {"smiles": "CN(C)C(=O)Cn1cc(-c2ccc(-c3cnc(N)c4ncc(C(=O)N5CCC5)cc34)cc2)cn1", "note": "[Compound 3.52, 2-(4-(4-(8-amino-3-(azetidine-1-carbonyl)-1,7-naphthyridine-5-yl)phenyl)-1H-pyrazole-1-yl)-N,N-dimethylacetamide]", "IC50": 0.96}
    ]}
  ]
}
